Literature values as cited in PMC4210863 (Bioorganic & medicinal chemistry, 2010).

Molecular target: T1, O-GlcNAcase (OGA) (Homo sapiens, UniProt O60502)
T1 sequence (O60502 1-916): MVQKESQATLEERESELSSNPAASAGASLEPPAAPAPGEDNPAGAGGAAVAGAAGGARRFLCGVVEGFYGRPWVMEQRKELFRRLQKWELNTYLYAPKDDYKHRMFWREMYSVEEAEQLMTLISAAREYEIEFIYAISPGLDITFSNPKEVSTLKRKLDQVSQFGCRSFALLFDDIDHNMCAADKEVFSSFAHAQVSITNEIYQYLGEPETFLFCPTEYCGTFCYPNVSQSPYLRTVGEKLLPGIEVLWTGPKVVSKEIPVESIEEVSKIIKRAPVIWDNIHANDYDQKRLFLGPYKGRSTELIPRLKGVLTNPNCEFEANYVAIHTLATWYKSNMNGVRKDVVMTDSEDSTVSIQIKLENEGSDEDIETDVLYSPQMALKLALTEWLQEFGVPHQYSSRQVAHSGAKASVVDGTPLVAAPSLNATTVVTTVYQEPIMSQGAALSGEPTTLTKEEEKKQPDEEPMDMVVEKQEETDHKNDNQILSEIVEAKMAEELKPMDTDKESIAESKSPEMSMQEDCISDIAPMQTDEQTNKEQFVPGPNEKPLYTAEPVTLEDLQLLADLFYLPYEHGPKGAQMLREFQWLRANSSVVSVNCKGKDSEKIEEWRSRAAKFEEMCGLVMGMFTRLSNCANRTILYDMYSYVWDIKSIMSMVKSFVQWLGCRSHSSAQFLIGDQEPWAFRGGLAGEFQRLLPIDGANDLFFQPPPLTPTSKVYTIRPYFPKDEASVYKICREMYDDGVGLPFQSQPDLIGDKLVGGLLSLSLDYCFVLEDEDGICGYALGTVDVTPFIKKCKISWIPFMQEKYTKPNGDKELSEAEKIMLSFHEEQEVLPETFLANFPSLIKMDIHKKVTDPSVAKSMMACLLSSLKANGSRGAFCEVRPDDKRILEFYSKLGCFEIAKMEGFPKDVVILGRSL
Assay: fluorogenic substrate hydrolysis by OGA
Assay type: biochemical

- Km: 85 µM
SMILES: CC(=O)N[C@H]1[C@H](Oc2ccc3c(c2)Oc2cc(O[C@@H]4O[C@H](CO)[C@@H](O)[C@H](O)[C@H]4NC(C)=O)ccc2C32OC(=O)c3ccccc32)O[C@H](CO)[C@@H](O)[C@@H]1O [compound 3, FDGlcNAc]
